Experimental data taken from patent publication US20180008573A1, “METHODS AND COMPOSITIONS FOR REDUCING DAMAGE ASSOCIATED WITH OXIDATIVE PHOSPHORYLATION” (USANA Health Sciences, Inc., priority 2016, published 2018).

What was measured:
C. elegans strain CB5586 = assay: C. elegans phenotypic lifespan screening (Kaplan-Meier, Log-Rank, Fisher's Exact Test); type: in vivo; conditions: for restricted mean lifespan, # of Days: DMSO control 13.23
Method: Dilutions of the test formulations were applied to individual populations of C. elegans and the lifespan of each population was monitored. Any changes in the lifespan of an individual population compared to a control population were recorded and correlated to the respective test formulation (N356 or N357) and the respective dilution (0.1 mg/ml, 1 mg/ml, and 10 mg/ml).
The […] and N357 formulations were each prepared as individual 100 mg/ml stock solutions in dimethyl sulfoxide (DMSO). Serial dilutions of each stock solution were then prepared at 0.1 mg/ml, 1 mg/ml, and 10 mg/ml in DMSO. Control solutions of DMSO only were also prepared. Synchronous aged adult populations of C.elegans strain CB5586 worms were prepared. The CB5586 strain comprises a pharyngeal GFP (green fluorescent protein) tag and a mutation in the bus-5 gene. The pharyngeal GFP tag allows for fluorescent images of the worm populations to be taken. The mutation in the bus-5 gene causes the loss of normal cuticle antigens that permits the cuticle of the worms to become permeable to the test formulations and allow direct uptake of the test formulations to avoid interaction of the test formulations with protective mechanisms of the gut channel. Each serial dilution of each test formulation was added to a separate population of the prepared worms. The control solutions were also added to separate populations of the prepared worms. The populations of the prepared worms were then maintained on standard nematode growth media (NGM) agar plates at 20° C. with sufficient food (Escherichia coli strain OP-50).
Each worm population was then monitored by fluorescent imaging to determine the number of living and dead worms as a function of time. The fluorescent imaging was analyzed by software that recognized and counted worms based on their fluorescent intensity compared to background fluorescence. […] The ability to distinguish between living and dead worms allowed the number of living worms and cumulative number of dead worms to be monitored against time. Worm populations from a selection of fluorescent images were manually checked to verify that the software had accurately counted the number of living and dead worms.
The counts of the living and dead worms as a function of time were then analyzed for each of the worm populations and used to prepare Kaplan-Meier survival curves and associated statistics for each of the worm populations. […] The median lifespan is shown as the length of time after the last mitotic division that 50% of the test population remains viable when compared to the control population. The maximum lifespan extension is shown as the length of time after the last mitotic division that 5% of the test population remains viable when compared to the control population.
The counts of the living and dead worms as a function of time and the Kaplan-Meier survival curves and the associated statistics were then analyzed for each of the worm populations. The analysis included determining mean and median lifespan. The analysis included a non-parametric test, the Log-Rank test, that compares two survival functions for the overall lifespan assay and provides a reliable p-value summarizing the whole experiment. The analysis also included Fisher's Exact Test that calculated the significance of survival function comparisons at multiple specific time points throughout the experiment, rather than for the overall lifespan. The results of the analysis are shown below in Tables 10-17.
Phenotypic screening was carried out as described in EXAMPLE 2 for various individual compounds of the N357 formulation. […] Alpha lipoic acid was sourced from PureBulk USA as a racemic mix of R and S stereoisomers and was assigned a sample number of N198. Hesperidin was sourced from Sigma Aldrich at ≧80% purity and was assigned a sample number of N347. […]

human NF-κB = assay: NF-κB antagonist reporter assay (NF-κB GRE-luciferase, HEK293 cells); type: cell-based;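 further: reporter cells carry native NF-κB receptor with firefly luciferase under upstream response elements, with a vehicle control included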
NF-κB reporter cells = assay: Live cell multiplex assay in the NF-κB antagonist assay; type: cell-based, human
Method: A vehicle control was prepared.

SMILES: COc1ccc([C@@H]2CC(=O)c3c(O)cc(O[C@@H]4O[C@H](CO[C@@H]5O[C@@H](C)[C@H](O)[C@@H](O)[C@H]5O)[C@@H](O)[C@H](O)[C@H]4O)cc3O2)cc1O [N347, hesperidin]
- Statistically Significant Result (lifespan vs. DMSO control) (C. elegans strain CB5586; 0.1 mg/ml): Statistically significant increase
- extension of lifespan (C. elegans strain CB5586; 0.1 mg/ml): about 10%
- population age in days at 25% mortality (C. elegans strain CB5586; 0.1 mg/ml): 11 days
- population age in days at 50% mortality (C. elegans strain CB5586; 0.1 mg/ml): 16 days
- population age in days at 75% mortality (C. elegans strain CB5586; 0.1 mg/ml): 18 days
- effect on chronological lifespan (C. elegans strain CB5586; 0.1 mg/ml and 10 mg/ml tested): significant positive and dose dependent increase of chronological lifespan
- % Change in Mean Lifespan (C. elegans strain CB5586; 0.1 mg/ml vs. DMSO control): +10%
- restricted mean lifespan, # of Days (C. elegans strain CB5586; 0.1 mg/ml): 14.55 days
- Statistically Significant Result (lifespan vs. DMSO control) (C. elegans strain CB5586; 10 mg/ml): No statistical difference
- population age in days at 25% mortality (C. elegans strain CB5586; 10 mg/ml): 11 days
- population age in days at 50% mortality (C. elegans strain CB5586; 10 mg/ml): 14 days
- population age in days at 75% mortality (C. elegans strain CB5586; 10 mg/ml): 18 days
- restricted mean lifespan, # of Days (C. elegans strain CB5586; 10 mg/ml): 14.19 days

SMILES: C[C@@H]1O[C@@H](OC[C@H]2O[C@@H](Oc3c(-c4ccc(O)c(O)c4)oc4cc(O)cc(O)c4c3=O)[C@H](O)[C@@H](O)[C@@H]2O)[C@H](O)[C@H](O)[C@H]1O [Rutin, quercetin-3-O-rutinoside]
- NF-κB % Inhibition (human NF-κB; 1.11 μg/ml active ingredient): 10%
- NF-κB % Inhibition (human NF-κB; 3.3 μg/ml active ingredient): −2.3%
- NF-κB % Inhibition (human NF-κB; 10.0 μg/ml active ingredient): −11%
- NF-κB % Inhibition (human NF-κB; 30 μg/ml active ingredient): −15%
- NF-κB % Live Cell (NF-κB reporter cells; 1.11 μg/ml active ingredient): 99%
- NF-κB % Live Cell (NF-κB reporter cells; 3.3 μg/ml active ingredient): 98%
- NF-κB % Live Cell (NF-κB reporter cells; 10.0 μg/ml active ingredient): 101%
- NF-κB % Live Cell (NF-κB reporter cells; 30 μg/ml active ingredient): 97%
